Data published in patent publication US8784373B2, “Drug delivery by carbon nanotube arrays” (California Institute of Technology, priority 2010, dated 2014).
Entries after “also recorded” stand apart in the source; their conditions may differ.

Key:
[1] = paclitaxel-eluting composite fibers, most of it over 30 days; cited from earlier work
[2] = Rubbing experiment (mechanical drug removal) with glass slide; assay type: physicochemical; conditions: for flutax-1 removed (washed-out) by rubbing: approx. 125 μg deposited, 1 μL DI water, 500 g weight, 60 seconds
Method: Another experiment was performed that targeted possible drug removal from CNT-fitted drug delivery platform by mechanical (e.g., rubbing) actions during its cardiovascular travel. Two types of specimens were used, a bare sheet of latex and a sheet of latex with CNTs anchored on one side. On each specimen, approximately 125 μg of flutax-1 was deposited by successively dropping small volumes of its ethanol solution and allowed to dry. Next, 1 μL of DI water followed by a microscopic 3×1×5/128-inch glass slide was put on each specimen. Finally, with a 500 g weight on top of it, the microscopic slide was moved back and forth a few millimeters at about 1 cm/sec for 60 seconds (FIG. 8). […] After the test, each of the two specimens was dropped in 2 mL of pure ethanol to see if they still had flutax-1 left on them.

[3] = Diffusion of flutax-1 from anchored CNT array; assay type: physicochemical

Structure (SMILES) | drug delivered from stent [1] | flutax-1 remaining after rubbing, recovered in 2 mL pure ethanol ([2]; CNT-fitted latex sheet) | flutax-1 removed (washed-out) by rubbing ([2]; CNT-fitted latex sheet) | flutax-1 remaining after rubbing, recovered in 2 mL pure ethanol ([2]; bare latex sheet) | flutax-1 removed (washed-out) by rubbing ([2]; bare latex sheet) | movement (diffusion) of flutax-1 molecules ([3]; in DI water) | movement (diffusion) of flutax-1 molecules, time scale ([3]; in agar)
CC(=O)O[C@H]1C(=O)[C@@]2(C)[C@H]([C@H](OC(=O)c3ccccc3)[C@]3(O)C[C@H](OC(=O)[C@H](O)[C@@H](NC(=O)c4ccccc4)c4ccccc4)C(C)=C1C3(C)C)[C@]1(OC(C)=O)CO[C@@H]1C[C@@H]2O [paclitaxel] | about 40% |  |  |  |  |  | 
CC(=O)O[C@H]1C(=O)[C@@]2(C)C([C@H](OC(=O)c3ccccc3)[C@]3(O)C[C@H](OC(=O)[C@H](O)[C@@H](NC(=O)c4ccccc4)c4ccccc4)C(C)=C1C3(C)C)[C@]1(OC(C)=O)CO[C@@H]1C[C@@H]2OC(=O)[C@H](C)NC(=O)c1ccc(-c2c3ccc(=O)cc-3oc3cc(O)ccc23)c(C(=O)O)c1 (stereo partly shown) [flutax-1] |  | much flutax-1 still remains; also recorded: considerably more flutax-1 released | almost no | no more flutax-1 remains | significant amount; also recorded: considerably higher flutax-1 removal | did not move appreciably | in a matter of minutes
